Legend:
VIOTR [1] = assay: Post-emergence action against VIOTR; format: in vivo, Viola tricolor; conditions: post-emergence, dosage 80 g/ha
Outline: (§1)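 Post-emergence foliar spray on greenhouse plants at the one-leaf stage, using wettable-powder or emulsion-concentrate formulations in water (600 to […], plus 0.2% wetting agent). Damage scored by eye roughly 3 weeks later against untreated plants: 0% = like control, 100% = dead.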

STEME [2] = assay: Pre-emergence action against STEME; format: in vivo, Stellaria media; conditions: Dosage 320 g/ha, pre-emergence
Outline: (§2)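 Seeds sown in sandy loam in wood-fiber pots and covered with soil. Greenhouse growth; visual damage scored after 3 weeks versus untreated controls (100% = dead, 0% = like control).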

ALOMY [3] = assay: Post-emergence action against ALOMY; format: in vivo, Alopecurus myosuroides; conditions: Dosage 80 g/ha, post-emergence
Outline: as §1

SETVI [4] = assay: Post-emergence action against SETVI; format: in vivo, Setaria viridis; conditions: post-emergence, dosage 80 g/ha, visual assessment about 3 weeks after treatment vs untreated controls
Outline: as §1

PHBPU [5] = assay: Post-emergence action against PHBPU; format: in vivo, Pharbitis purpurea; conditions: post-emergence, dosage 80 g/ha
Outline: as §1

AMARE [6] = assay: Post-emergence action against AMARE; format: in vivo, Amaranthus retroflexus; conditions: post-emergence, dosage 80 g/ha, visual assessment about 3 weeks after treatment vs untreated controls
Outline: as §1

LOLRI = assay: Pre-emergence action against LOLRI; format: in vivo, Lolium rigidum; conditions: dosage 320 g/ha, scored visually after 3 weeks vs untreated controls
Outline: as §2

ECHCG [7] = assay: Post-emergence action against ECHCG; format: in vivo, Echinochloa crus-galli; conditions: post-emergence, dosage 80 g/ha, visual assessment about 3 weeks after treatment vs untreated controls
Outline: as §1

ABUTH [8] = assay: Post-emergence action against ABUTH; format: in vivo, Abutilon theophrasti; conditions: post-emergence, dosage 80 g/ha, visual assessment about 3 weeks after treatment vs untreated controls
Outline: as §1

VIOTR [9] = assay: Pre-emergence action against VIOTR; format: in vivo, Viola tricolor; conditions: Dosage 320 g/ha, pre-emergence
Outline: as §2

SETVI [10] = assay: Pre-emergence action against SETVI; format: in vivo, Setaria viridis; conditions: pre-emergence, dosage 320 g/ha, scored visually after 3 weeks vs untreated controls
Outline: as §2

MATIN [11] = assay: Pre-emergence action against MATIN; format: in vivo, Matricaria inodora; conditions: Dosage 320 g/ha, pre-emergence
Outline: as §2

VERPE [12] = assay: Post-emergence action against VERPE; format: in vivo, Veronica persica; conditions: dosage 80 g/ha
Outline: as §1

MATIN [13] = assay: Post-emergence action against MATIN; format: in vivo, Matricaria inodora; conditions: post-emergence, dosage 80 g/ha, visual assessment about 3 weeks after treatment vs untreated controls
Outline: as §1

AVEFA [14] = assay: Post-emergence action against AVEFA; format: in vivo, Avena fatua; conditions: post-emergence, dosage 80 g/ha, visual assessment about 3 weeks after treatment vs untreated controls
Outline: as §1

ALOMY [15] = assay: Pre-emergence action against ALOMY; format: in vivo, Alopecurus myosuroides; conditions: dosage 320 g/ha; pre-emergence; scored visually after 3 weeks vs untreated controls; 100% = plants have died, 0% = like control plants
Outline: as §2

ABUTH [16] = assay: Pre-emergence action against ABUTH; format: in vivo, Abutilon theophrasti; conditions: pre-emergence, dosage 320 g/ha, scored visually after 3 weeks vs untreated controls
Outline: as §2

VERPE [17] = assay: Pre-emergence action against VERPE; format: in vivo, Veronica persica; conditions: Dosage 320 g/ha, pre-emergence
Outline: as §2

STEME [18] = assay: Post-emergence action against STEME; format: in vivo, Stellaria media; conditions: post-emergence, dosage 80 g/ha
Outline: as §1

PHBPU [19] = assay: Pre-emergence action against PHBPU; format: in vivo, Pharbitis purpurea; conditions: Dosage 320 g/ha, pre-emergence
Outline: as §2

DIGSA [20] = assay: Pre-emergence action against DIGSA; format: in vivo, Digitaria sanguinalis; conditions: dosage 320 g/ha, scored visually after 3 weeks vs untreated controls
Outline: as §2

AVEFA [21] = assay: Pre-emergence action against AVEFA; format: in vivo, Avena fatua; conditions: dosage 320 g/ha, scored visually after 3 weeks vs untreated controls
Outline: as §2

ECHCG [22] = assay: Pre-emergence action against ECHCG; format: in vivo, Echinochloa crus-galli; conditions: pre-emergence, dosage 320 g/ha, scored visually after 3 weeks vs untreated controls
Outline: as §2

AMARE [23] = assay: Pre-emergence action against AMARE; format: in vivo, Amaranthus retroflexus; conditions: pre-emergence, dosage 320 g/ha, scored visually after 3 weeks vs untreated controls
Outline: as §2

DIGSA [24] = assay: Post-emergence action against DIGSA; format: in vivo, Digitaria sanguinalis; conditions: dosage 80 g/ha, visual assessment about 3 weeks after treatment vs untreated controls
Protocol: Seeds of monocotyledonous and dicotyledonous weed and crop plants are laid out in sandy loam soil in wood-fiber pots, covered with soil and cultivated in a greenhouse under good growth conditions. 2 to 3 weeks after sowing, the test plants are treated at the one-leaf stage. The compounds of the invention, formulated in the form of wettable powders (WP) or as emulsion concentrates (EC), are then sprayed onto the green parts of the plants in the form of an aqueous suspension or emulsion at a water application rate equating to […], with addition of 0.2% wetting agent. After the test plants have been left to stand in the greenhouse under optimal growth conditions for about 3 weeks, the action of the preparations is assessed visually in comparison to untreated controls (herbicidal action in percent (%): 100% activity=the plants have died, 0% activity=like control plants). […] At the same time, inventive compounds leave Gramineae crops such as barley, wheat, rye, millet/Sorghum, corn or rice virtually undamaged when applied post-emergence, even at high active ingredient dosages. In addition, some substances are also harmless to dicotyledonous crops such as soya, cotton, oilseed rape, sugar beet or potatoes. Some of the compounds according to the invention have high selectivity and are therefore suitable for controlling unwanted vegetation in agricultural crops by the post-emergence method. The data of Tables B18 to B34 below illustrate, in an exemplary manner, the […] herbicidal action of the compounds according to the invention, the herbicidal activity being stated in percent.

Cc1c(C(=O)Nc2nnnn2C)ccc(C(F)(F)F)c1C(=O)CCl [1-22]
Post-emergence action against VIOTR (VIOTR [1]): 90
Pre-emergence action against STEME (STEME [2]): 100%
Post-emergence action against ALOMY (ALOMY [3]): 90%
Post-emergence action against SETVI (herbicidal action in percent) (SETVI [4]): 90%
Post-emergence action against PHBPU (PHBPU [5]): 90
Post-emergence action against AMARE (herbicidal action in percent) (AMARE [6]): 90%
Pre-emergence action against LOLRI (herbicidal activity) (LOLRI): 100%
Post-emergence action against ECHCG (herbicidal action in percent) (ECHCG [7]): 90%
Post-emergence action against ABUTH (herbicidal action in percent) (ABUTH [8]): 90%
Pre-emergence action against VIOTR (VIOTR [9]): 100%
SETVI (Table B8, pre-emergence herbicidal activity) (SETVI [10]): 100%
Pre-emergence action against MATIN (MATIN [11]): 100%
Post-emergence action against VERPE (VERPE [12]): 80
Post-emergence action against MATIN (herbicidal action in percent) (MATIN [13]): 90%
Post-emergence action against AVEFA (herbicidal action in percent) (AVEFA [14]): 90%
Pre-emergence action against ALOMY (herbicidal activity in percent) (ALOMY [15]): 90%
Pre-emergence action against ABUTH (herbicidal activity) (ABUTH [16]): 100%
Pre-emergence action against VERPE (VERPE [17]): 100%
Post-emergence action against STEME (STEME [18]): 90
Pre-emergence action against PHBPU (PHBPU [19]): 90%
Pre-emergence action against DIGSA (herbicidal activity) (DIGSA [20]): 100%
Pre-emergence action against AVEFA (herbicidal activity) (AVEFA [21]): 100%
Pre-emergence action against ECHCG (herbicidal activity) (ECHCG [22]): 100%
Pre-emergence action against AMARE (herbicidal activity) (AMARE [23]): 100%
Post-emergence action against DIGSA (herbicidal action in percent) (DIGSA [24]): 100%
